Source: patent US20260130933A1, “PHARMACEUTICAL COMPOSITION FOR PREVENTION OR TREATMENT OF NEPHROPATHY AND/OR DIABETES MELLITUS, COMPRISING ENAVOGLIFLOZIN” (DAEWOONG PHARMACEUTICAL CO., LTD., priority 2022, published 2026)

Assay: Example 3: phase 3 trial, enavogliflozin 0.3 mg vs dapagliflozin 10 mg once a day for 24 weeks added to metformin and gemigliptin in patients with type 2 diabetes (same endpoints, rescue drug)
Assay type: in vivo, human
Settings: week 24
Protocol: 1) when Metformin (≥1,000 mg/Day) was Administered at a Constant Dose for at Least 8 Weeks Prior to Pre-Visit (Pre-Screening) • Metformin (≥1,000 mg/day) and gemigliptin (50 mg/day) were co-administered during the 8-week stabilization period. […] 4) when Metformin (≥1,000 mg/Day) and Gemigliptin (50 mg/Day) were Co-Administered at Constant Doses for at Least 8 Weeks Prior to Pre-Visit (Prescreening) • Without a separate stabilization period, Pre-visit (pre-screening) was Visit 1 (screening).
Subjects who met the inclusion/exclusion criteria continued to receive metformin and gemigliptin while receiving a placebo of the clinical trial drug in a single-blind (subject-blinded) state for a 2-week run-in period.
Here, the randomized subjects were stratified according to the administration therapy (co-administration with two or less agents (one or two agents) or three or more agents) of a conventional hypoglycemic agent (before washout of another hypoglycemic agent) within 24 weeks prior to obtaining written informed consent and by an HbA1c value (<8% or ≥8%) at Visit 1 (screening) measured in the central laboratory.
The randomized subjects were administered two tablets of the clinical trial drug corresponding to each administration group once a day, and then visited the institution at weeks 6, 12, 18, and 24 during the 24-week administration period to conduct efficacy and safety assessments. In addition, during the clinical trial period, they were instructed to exercise regularly and control their diet without changing their daily life patterns.
• 1) Change in HbA1c at week 24 after administration of clinical trial drug compared to Visit 2 (randomization)
• 1) Change in HbA1c at each time point of weeks 6, 12, and 18 after administration of clinical trial drug compared to Visit 2 (randomization) • 2) Change in FPG at each time point of weeks 6, 12, 18, and 24 after administration of clinical trial drug compared to Visit 2 (randomization) • 3) Proportion of subjects achieving HbA1c<7% at each time point of weeks 6, 12, 18, and 24 after administration of clinical trial drug • 4) Proportion of subjects achieving HbA1c<6.5% at each time point of weeks 6, 12, 18, and 24 after administration of clinical trial drug • 5) Proportion of subjects achieving therapeutic response (HbA1c change (HbA1c at Visit 2—HbA1c at each evaluation time point)>0.5% or HbA1c<7% at each evaluation time point compared to Visit 2 (randomization)) at each time point of weeks 6, 12, 18, and 24 after administration of clinical trial drug • 6) Proportion of subjects achieving therapeutic response (HbA1c change (HbA1c at Visit 2—HbA1c at each evaluation time point)>0.7% or HbA1c<7% at each evaluation time point compared to Visit 2 (randomization)) at each time point of weeks 6, 12, 18, and 24 after administration of clinical trial drug • 7) Proportion of subjects achieving therapeutic response (HbA1c change (HbA1c at Visit 2—HbA1c at each evaluation time point)>1% or HbA1c<7% at each evaluation time point compared to Visit 2 (randomization)) at each time point of weeks 6, 12, 18, and 24 after administration of clinical trial drug

[1] = modified per-protocol set 2, enavogliflozin 0.3 mg, dapagliflozin 10 mg
[2] = per-protocol set, enavogliflozin 0.3 mg vs dapagliflozin 10 mg
[3] = per-protocol set, enavogliflozin 0.3 mg, dapagliflozin 10 mg

In the case of `OC[C@H]1O[C@@H](c2cc(Cc3ccc(C4CC4)cc3)c(Cl)c3c2CCO3)[C@H](O)[C@@H](O)[C@@H]1O` [Enavogliflozin, (2S,3R,4R,5S,6R)-2-(7-chloro-6 (4-cyclopropylbenzyl)-2,3-dihydrobenzofuran-4-yl)-6-(hydroxymethyl)tetrahydro-2H-pyran-3,4,5-triol], the “Change from baseline in diastolic blood pressure, Median” value (modified per-protocol set 2) is reported as −3.00 mmHg, the “Diastolic blood pressure, Mean” value (modified per-protocol set 2) is reported as 73.40 mmHg and the “Diastolic blood pressure, Median” value (modified per-protocol set 2) is reported as 73.50 mmHg. For the same compound, the “Change from baseline in systolic blood pressure, ANCOVA LS mean difference” value (modified per-protocol set 2, enavogliflozin 0.3 mg vs dapagliflozin 10 mg) was −0.22 mmHg, the “Change from baseline in systolic blood pressure, ANCOVA LS mean” value [1] was −4.49 mmHg and the “Change from baseline in systolic blood pressure, Mean” value [1] was −5.20 mmHg. The “Change from baseline in systolic blood pressure, Median” value [1] was −5.00 mmHg, the “Systolic blood pressure, Mean” value [1] was 122.29 mmHg and the “Systolic blood pressure, Median” value [1] was 121.00 mmHg. The “Adiponectin, Mean” value (per-protocol set) was 7.62 µg/mL, the “Adiponectin, Median” value (per-protocol set) was 6.49 µg/mL and the “Change from baseline in HOMA-IR, ANCOVA LS mean” value (per-protocol set) was −1.09. The “Change from baseline in HOMA-IR, LS mean difference (enavogliflozin − dapagliflozin)” value (per-protocol set) was −0.16, the “Change from baseline in HOMA-IR, Mean” value (per-protocol set) was −1.07 and the “Change from baseline in HOMA-IR, Median” value (per-protocol set) was −0.80. For the same compound, the “Change from baseline in HOMA-β, ANCOVA LS mean” value (per-protocol set) was 1.09, the “Change from baseline in HOMA-β, LS mean difference (enavogliflozin − dapagliflozin)” value (per-protocol set) was −4.69 and the “Change from baseline in HOMA-β, Mean” value (per-protocol set) was 2.57. For the same compound, the “Change from baseline in HOMA-β, Median” value (per-protocol set) was 5.70, the “Change from baseline in UACR, ANCOVA LS mean” value (per-protocol set) was -15.34 g/kg and the “Change from baseline in UACR, LS mean difference (enavogliflozin − dapagliflozin)” value (per-protocol set) was 0.79 g/kg. The “Change from baseline in UACR, Mean” value (per-protocol set) was -19.52 g/kg, the “Change from baseline in UACR, Median” value (per-protocol set) was -1.55 g/kg and the “Change from baseline in UGCR, ANCOVA LS mean” value (per-protocol set) was 60.22 mg/mg. The “Change from baseline in UGCR, LS mean difference (enavogliflozin − dapagliflozin)” value (per-protocol set) was 16.71 mg/mg, the “Change from baseline in UGCR, Mean” value (per-protocol set) was 59.39 mg/mg and the “Change from baseline in UGCR, Median” value (per-protocol set) was 55.98 mg/mg. For the same compound, the “Change from baseline in adiponectin, ANCOVA LS mean” value (per-protocol set) was 1.42 µg/mL, the “Change from baseline in adiponectin, LS mean difference (enavogliflozin − dapagliflozin)” value (per-protocol set) was 0.49 µg/mL and the “Change from baseline in adiponectin, Mean” value (per-protocol set) was 1.39 µg/mL. For the same compound, the “Change from baseline in adiponectin, Median” value (per-protocol set) was 1.11 µg/mL, the “Change from baseline in leptin, ANCOVA LS mean” value (per-protocol set) was -1.46 ng/mL and the “Change from baseline in leptin, LS mean difference (enavogliflozin − dapagliflozin)” value (per-protocol set) was -0.89 ng/mL. For the same compound, the “Change from baseline in leptin, Mean” value (per-protocol set) was -1.52 ng/mL, the “Change from baseline in leptin, Median” value (per-protocol set) was -0.91 ng/mL and the “HOMA-IR (insulin resistance), Mean” value (per-protocol set) was 1.84. The “HOMA-IR (insulin resistance), Median” value (per-protocol set) was 1.56, the “HOMA-β (beta-cell function), Mean” value (per-protocol set) was 45.48 and the “HOMA-β (beta-cell function), Median” value (per-protocol set) was 41.40. The “Leptin, Mean” value (per-protocol set) was 8.95 ng/mL, the “Leptin, Median” value (per-protocol set) was 6.03 ng/mL and the “UACR, Mean” value (per-protocol set) was 27.90 g/kg. For the same compound, the “UACR, Median” value (per-protocol set) was 11.10 g/kg, the “UGCR, Mean” value (per-protocol set) was 60.12 mg/mg and the “UGCR, Median” value (per-protocol set) was 57.96 mg/mg. The “Achieving HbA1c target of <6.5%, odds ratio (logistic regression model)” value [2] was 1.27, the “Achieving HbA1c target of <7%, odds ratio (logistic regression model)” value [2] was 1.17 and the “Change from baseline in FPG, ANCOVA LS mean difference” value [2] was -3.49 mg/dL. The “Change from baseline in body weight, ANCOVA LS mean difference” value [2] was -0.15 kg, the “Change from baseline in fasting C-peptide, ANCOVA LS mean difference” value [2] was -0.01 ng/mL and the “Therapeutic glycemic response 1, odds ratio (logistic regression model)” value [2] was 1.15. The “Therapeutic glycemic response 2, odds ratio (logistic regression model)” value [2] was 0.98, the “Therapeutic glycemic response 3, odds ratio (logistic regression model)” value [2] was 1.22 and the “Body weight, Mean” value [3] was 66.19 kg. The “Change from baseline in FPG, ANCOVA LS mean” value [3] was -27.21 mg/dL, the “Change from baseline in FPG, Mean” value [3] was -26.31 mg/dL and the “Change from baseline in FPG, Median” value [3] was -20.00 mg/dL. For the same compound, the “Change from baseline in body weight, ANCOVA LS mean” value [3] was -3.15 kg, the “Change from baseline in body weight, Mean” value [3] was -3.09 kg and the “Change from baseline in body weight, Median” value [3] was -3.00 kg. For the same compound, the “Change from baseline in fasting C-peptide, ANCOVA LS mean” value [3] was -0.09 ng/mL, the “Change from baseline in fasting C-peptide, Mean” value [3] was -0.09 ng/mL and the “Change from baseline in fasting C-peptide, Median” value [3] was -0.07 ng/mL. For the same compound, the “FPG, Mean” value [3] was 113.03 mg/dL, the “FPG, Median” value [3] was 110.00 mg/dL and the “Fasting C-peptide, Mean” value [3] was 0.64 ng/mL. The “Fasting C-peptide, Median” value [3] was 0.63 ng/mL, the “Subjects achieving HbA1c target of <6.5%, (%)” value [3] was 21.01% and the “Subjects achieving HbA1c target of <7%, %” value [3] was 66.39%. The “body weight, Median” value [3] was 65.10 kg, the “Subjects achieving therapeutic glycemic response 1, %” value (per-protocol set, response 1 = HbA1c change >0.5% or HbA1c <7%, enavogliflozin 0.3 mg, dapagliflozin 10 mg) was 86.55% and the “Subjects achieving therapeutic glycemic response 2, %” value (per-protocol set, response 2 = HbA1c change >0.7% or HbA1c <7%, enavogliflozin 0.3 mg, dapagliflozin 10 mg) was 81.51%. The “Subjects achieving therapeutic glycemic response 3, %” value (per-protocol set, response 3 = HbA1c change >1% or HbA1c <7%, enavogliflozin 0.3 mg, dapagliflozin 10 mg) was 78.15%.
